One data set has as its system P-gp. The conditions noted are these: patients receiving quinidine (P-gp inhibitor) treatment; cited from earlier work.
Another data set has as its system liver. Kind of data set: In situ liver perfusion. The format is in vivo, Sprague Dawley rats. To be noted: rat in situ liver perfusion, within 120 minutes.

SMILES strings stand for the structures.

With `C=C[C@H]1C[N@@]2CC[C@H]1C[C@@H]2[C@@H](O)c1ccnc2ccc(OC)cc12` [quinidine], in the data set with P-gp, the “Patients showing an obvious increase in the blood concentration of digoxin” value is given as 90%.
In the case of `CO[C@H]1/C=C/O[C@@]2(C)Oc3c(C)c(O)c4c(O)c(c(/C=N/N5CCN(C)CC5)c(O)c4c3C2=O)NC(=O)/C(C)=C\C=C\[C@H](C)[C@H](O)[C@@H](C)[C@@H](O)[C@@H](C)[C@H](OC(C)=O)[C@@H]1C` [rifampicin], in the data set on liver, the “Effect of inhibitor on the elimination rate of periplocin in the perfusate” value is listed as “significantly reduced”.

The values above are taken from PMC4026310 (Drug Design, Development and Therapy, 2014).
